“And” between values parts separate entries of the source, which are not always exact repeats. Equal values may be shown once.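 Tested at 5 concentrations; 48 h exposure; 96-well plates; endpoints linearly interpolated, else capped at highest concentration. GI50: concentration for 50% inhibition of growth. TGI: concentration producing complete growth inhibition.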
Legend:
Test in all cases: NCI-60 cell line screen, 48 h
[1] = test system: UO-31 renal
[2] = test system: SF-268 CNS
[3] = test system: A549 NSCLC
[4] = test system: T-47D breast
[5] = test system: MDA-N
[6] = test system: HCC-2998 colon
[7] = test system: RXF 393 renal
[8] = test system: LOX IMVI melanoma
[9] = test system: UACC-62 melanoma
[10] = test system: NCI-H226 lung
[11] = test system: EKVX NSCLC
[12] = test system: SNB-19 CNS
[13] = test system: A498 renal
[14] = test system: HCT-15 colon
[15] = test system: MCF7 breast
[16] = test system: NCI-H23 lung
[17] = test system: OVCAR-8 ovarian
[18] = test system: HL-60(TB) leukemia
[19] = test system: NCI-H460 lung
[20] = test system: 786-0 renal
[21] = test system: M14 melanoma
[22] = test system: SN12C renal
[23] = test system: MOLT-4 leukemia
[24] = test system: SW-620 colon
[25] = test system: OVCAR-4 ovarian
[26] = test system: HOP-92 NSCLC
[27] = test system: SF-295 CNS
[28] = test system: SK-MEL-28 melanoma
[29] = test system: PC-3 prostate
[30] = test system: OVCAR-5 ovarian
[31] = test system: NCI-H522 lung
[32] = test system: TK-10 renal
[33] = test system: CCRF-CEM leukemia
[34] = test system: OVCAR-3 ovarian
[35] = test system: MDA-MB-435
[36] = test system: HT29 colon
[37] = test system: U251 CNS
[38] = test system: RPMI-8226 leukemia
[39] = test system: SK-OV-3 ovarian
[40] = test system: SNB-75 CNS
[41] = test system: SF-539 CNS
[42] = test system: ACHN renal
[43] = test system: SK-MEL-5 melanoma
[44] = test system: HCT-116 colon
[45] = test system: DU-145 prostate
[46] = test system: MALME-3M melanoma
[47] = test system: SR leukemia
[48] = test system: KM12 colon
[49] = test system: MDA-MB-231 breast
[50] = test system: NCI/ADR-RES ovarian
[51] = test system: HOP-62 NSCLC
[52] = test system: BT-549 breast
[53] = test system: CAKI-1 renal
[54] = test system: COLO 205 colon
[55] = test system: UACC-257 melanoma
[56] = test system: K-562 leukemia
[57] = test system: HS 578T breast
[58] = test system: IGROV1 ovarian
[59] = test system: SK-MEL-2 melanoma

COc1ccc(-c2cc(-c3ccccc3)nc(/N=C\c3ccccc3)n2)c(O)c1
TGI [1]: > 100 µM | TGI [2]: > 100 µM | TGI [3]: > 100 µM | TGI [4]: > 100 µM | TGI [5]: > 100 µM | TGI [6]: > 100000 nM | TGI [7]: > 100000 nM | TGI [8]: > 100 µM | TGI [9]: > 100 µM | TGI [10]: > 100000 nM | TGI [11]: > 100000 nM | TGI [12]: > 100000 nM | TGI [13]: > 100000 nM | TGI [14]: > 100 µM | TGI [15]: > 100 µM | TGI [16]: > 100 µM | TGI [17]: > 100 µM | TGI [18]: > 35.4 µM | TGI [19]: > 100 µM | TGI [20]: > 100 µM | TGI [21]: > 100 µM | TGI [22]: > 100 µM | TGI [23]: > 100 µM | TGI [24]: > 100 µM | TGI [25]: > 100 µM | TGI [26]: > 100000 nM | TGI [27]: > 100 µM | TGI [28]: > 100 µM | TGI [29]: > 100000 nM | TGI [30]: > 100 µM | TGI [31]: > 100 µM | TGI [32]: > 100000 nM | TGI [33]: > 100 µM | TGI [34]: > 100000 nM | TGI [35]: > 100 µM | TGI [36]: > 100 µM | TGI [37]: > 100000 nM | TGI [38]: 5.71 µM | TGI [39]: > 100 µM | TGI [40]: > 100000 nM | TGI [41]: > 100 µM | TGI [42]: > 100000 nM | TGI [43]: > 100000 nM | TGI [44]: > 100 µM | TGI [45]: > 100000 nM | TGI [46]: > 100 µM | TGI [47]: > 24.1 µM | TGI [48]: > 100 µM | TGI [49]: > 100 µM | TGI [50]: > 100 µM | TGI [51]: > 100 µM | TGI [52]: > 100 µM | TGI [53]: 8390 nM | TGI [54]: > 100000 nM | TGI [55]: > 100 µM | TGI [56]: > 100 µM | TGI [57]: > 100 µM | TGI [58]: > 100 µM | TGI [59]: > 100 µM

C[C@@]12C(=O)OC(=O)[C@]1(C)[C@H]1CC[C@@H]2O1
GI50 [1]: 1510 nM | TGI [1]: 2.85 µM and 7.06 µM | GI50 [2]: 477 nM | TGI [2]: 1.75 µM and 3.85 µM | GI50 [3]: 1090 nM | TGI [3]: 2.92 µM and 4.9 µM | GI50 [4]: 1470 nM | TGI [4]: 3.14 µM and 4.88 µM | GI50 [5]: 1290 nM | TGI [5]: 2.67 µM and 9.02 µM | GI50 [6]: 1030 nM | TGI [6]: 3000 nM and 2690 nM | TGI [7]: 1460 nM and 1700 nM | GI50 [8]: 1440 nM | TGI [8]: 2.89 µM and 6.79 µM | GI50 [9]: 1360 nM | TGI [9]: 2.86 µM and 7.48 µM | GI50 [10]: 1500 nM | TGI [10]: 2970 nM | GI50 [11]: 556 nM | TGI [11]: 1760 nM and 1900 nM | GI50 [12]: 1230 nM | TGI [12]: 2530 nM and 2830 nM | GI50 [13]: 1470 nM | TGI [13]: 2840 nM and 2690 nM | GI50 [14]: 2030 nM | TGI [14]: 4.7 µM and 13.8 µM | TGI [15]: 2.29 µM and 21.3 µM | GI50 [16]: 2790 nM | TGI [16]: 11.4 µM and 20.6 µM | GI50 [17]: 2100 nM | TGI [17]: 4.93 µM and 18 µM | GI50 [18]: 1390 nM | TGI [18]: 3.77 µM and 4.07 µM | GI50 [19]: 2450 nM | TGI [19]: 10.3 µM and 9.87 µM | GI50 [20]: 1470 nM | TGI [20]: 2.85 µM and 3.56 µM | TGI [21]: 2.87 µM and 3.48 µM | GI50 [22]: 1580 nM | TGI [22]: 3.21 µM and 4.43 µM | GI50 [23]: 3.88 µM | TGI [23]: 18 µM and 28.8 µM | GI50 [24]: 3.07 µM | TGI [24]: 10.9 µM and 16.6 µM | GI50 [25]: 1790 nM | TGI [25]: 3.88 µM and 8.61 µM | GI50 [26]: 846 nM | TGI [26]: 2200 nM and 2960 nM | TGI [27]: 2.85 µM and 3.22 µM | GI50 [28]: 1540 nM | TGI [28]: 3 µM and 11.1 µM | GI50 [29]: 525 nM | TGI [29]: 2020 nM and 1230 nM | GI50 [30]: 1300 nM | TGI [30]: 3.46 µM and 7.72 µM | GI50 [31]: 1110 nM | TGI [31]: 2.43 µM and 3.21 µM | GI50 [32]: 250 nM | TGI [32]: 608 nM and 792 nM | GI50 [33]: 1590 nM | TGI [33]: 10.8 µM and 7.85 µM | GI50 [34]: 871 nM | TGI [34]: 2190 nM and 2230 nM | GI50 [35]: 1620 nM | TGI [35]: 3.02 µM and 4.43 µM | TGI [36]: 3.43 µM and 5.93 µM | TGI [37]: 2640 nM and 2910 nM | GI50 [38]: 3.15 µM | TGI [38]: 18.2 µM and 6.29 µM | GI50 [39]: 1480 nM | TGI [39]: 3.36 µM and 5.24 µM | GI50 [40]: 698 nM | TGI [40]: 1910 nM and 1560 nM | GI50 [41]: 1620 nM | TGI [41]: 3.09 µM and 4.5 µM | TGI [42]: 2430 nM and 2830 nM | GI50 [43]: 1100 nM | TGI [43]: 2330 nM and 2770 nM | TGI [44]: 4.38 µM and 4.91 µM | GI50 [45]: 1370 nM | TGI [45]: 2820 nM and 2810 nM | GI50 [46]: 1500 nM | TGI [46]: 2.99 µM and 3.08 µM | GI50 [47]: 6.78 µM | TGI [47]: 44.9 µM and 15.3 µM | GI50 [48]: 1370 nM | TGI [48]: 2.76 µM and 17.5 µM | GI50 [49]: 1510 nM | TGI [49]: 3.04 µM and 3.24 µM | GI50 [50]: 1870 nM | TGI [50]: 4.94 µM and 25.5 µM | GI50 [51]: 1810 nM | TGI [51]: 3.34 µM and 5.73 µM | TGI [52]: 3.06 µM and 3.29 µM | TGI [53]: 2110 nM and 2290 nM | TGI [54]: 1690 nM and 1010 nM | GI50 [55]: 1490 nM | TGI [55]: 3.11 µM and 9.63 µM | GI50 [56]: 2780 nM | TGI [56]: 10.1 µM and 8.85 µM | GI50 [57]: 1360 nM and 1560 nM | TGI [57]: 3 µM and 3.29 µM | GI50 [58]: 1800 nM | TGI [58]: 3.82 µM and 7.78 µM | GI50 [59]: 1260 nM | TGI [59]: 2.77 µM and 3.38 µM
